Measured values as given in patent US8859615B2, “Compounds, compositions and methods for reducing toxicity and treating or preventing diseases” (priority 2008, dated 2014).
“And” between values parts separate entries of the source, which are not always exact repeats. Identical values can stand only once. Like-named read-outs stand apart in the source and are kept apart here.

What was measured:
[1] = test system: quinone reductase (NQO1) in Hepa 1c1c7 murine hepatoma cells; test: Phase 2 enzyme inducer activity (Prochaska microtiter plate bioassay); settings: Hepa 1c1c7 cells
Method: Pure panaxytriol was dissolved in dimethyl sulfoxide. Phase 2 enzyme inducer activity was measured using a rapid assay of activity of representative phase 2 enzyme in a cell line. This assay was originally developed by Prochaska and colleagues as in Prochaska H J, Santamaria A B, Talalay P. “Rapid detection of inducers of enzymes that protect against carcinogens.” Proc Natl Acad Sci US A 1992; 89:2394-2398, and has been further refined as in Fahey J W, Dinkova-Kostova A T, Stephenson K K, Talalay P. “The “Prochaska” microtiter plate bioassay for inducers of NQO1.” Methods Enzymol. 2004; 382:243-258, each of which are incorporated by reference in its entirety. Briefly, Hepa 1c1c7 murine hepatoma cells were grown in 96-well microtiter plates. Serial dilutions of the extracts or compounds which were assayed were added into the wells. After 48 hours, the cells were lysed and the activity of quinone reductase (NQO1) was assayed by the addition of a reaction mixture containing an NADPH-generating system, menadione and MTT. NQO1 catalyzes the reduction of menadione to menadiol by NADPH, and MTT is reduced nonenzymatically by menadiol, resulting in the formation of a blue color that can then be quantitated as in Prochaska H J, Santamaria A B. “Direct measurement of NAD(P)H:quinone reductase from cells cultured in microtiter wells: a screening assay for anticarcinogenic enzyme inducers.” Anal. Biochem. 1988; 169:328-336, which is incorporated by reference in its entirety. […] NQO1 activity and protein content of the lysate were measured in duplicate plates with an optical microtiter plate absorbance reader. […] One unit of inducer activity is defined as the amount that, when added to a single microtiter well, doubles the NQO1 specific activity. Sulforaphane and β-naphthoflavone were used as positive controls in each bioassay. […] NQO1 inducer activity was assayed as described herein, and is reported here as treated/control at different concentrations of ginseng extract or component per well. […] (+) Panaxytriol (molecular weight […]), (Δ) Protopanaxatriol (molecular weight 461), (◯) Korean red SUN GINSENG® extract. The reductase assay can also be performed as disclosed in PCT Publication No. WO 06/023821, the entire contents of which are hereby incorporated in the instant application.

[2] = test system: CCRF-CEM/VBL100 vinblastine-resistant cells; test: In vitro cytotoxicity against vinblastine-resistant CCRF-CEM subline; assay type: cell-based, human; settings: for IC50: Homo sapiens, CCRF-CEM, 72 h
Method: (§1) The cytotoxicity IC50 of each compound was measured with the XTT assay using the 2,3-bis(2-methoxy-4-nitro-5-sulfophenyl)-5-[(phenylamino)carbonyl]-2H-tetrazolium hydroxide (XTT) microculture method as described in Scudiero et al., Cancer Res., 48:4827 (1988), the contents of which are hereby incorporated by reference in their entirety. The CCK-8 assay is a cell counting kit-8 (CCK-8) tetrazolium assay using a 96-well microplate (Dojindo Molecular Technologies, Inc., Rockville, Md.) (M. Ishiyama et al., Biol. Pharm. Bull. 19: 1518, 1996). Absorbance was measured by Powerwave a XS microplate spectrophotometer. This method described is considered a general method in vitro cytotoxicity studies.
(§2) The data in Tables 2X, 3A-E, 4, 5, and 6 were obtained using the cell counting kit-8 (CCK-8) tetrazolium assay in a 96-well microplate. Five to seven concentrations of each compound in triplicate were used, and the IC50 values were determined by CompuSyn software automation (Chou T C. and Martin N. ComboSyn, Inc., 2006) based on the median-effect equation and plot (Chou T C. J. Theor. Biol. 59:235-276, 1976; Chou T C. Pharmacol. Rev. 58: 621-681, 2006). […] The r value defines the correlation coefficient of the median-effect plot which signifies the conformity to the mass-action law principle (Chou T C. J. Theor. Biol. 59:235-276, 1976; Chou T C. Pharmacol. Rev. 58:621-681, 2006). These parameters were determined by CompuSyn simulation (available at http://www.combosyn.com).
(§3) CCRF-CEM human T-cell acute lymphoblastic leukemia cells and the corresponding vinblastine-resistant cells (CCRF-CEM/VBL100) were cultured at an initial density of 5×10^4 cells per milliliter. The cultured cells were maintained in a 5% CO2-humidified atmosphere at 37° C. in RPMI medium 1640 (GIBCO/BRL) containing penicillin (100 units/mL), streptomycin (100 μg/mL, GIBCO/BRL), and 10% heat-inactivated fetal bovine serum. The cytotoxicity of each Compound of the invention was measured using the 2,3-bis(2-methoxy-4-nitro-5-sulfophenyl)-5-[(phenylamino)carbonyl]-2H-tetrazolium hydroxide (XTT) microculture method as described in Scudiero et al., Cancer Res., 48:4827 (1988), the contents of which are hereby incorporated by reference in their entirety.
(§4) Absorbance was measured by Powerwave XS microplate spectrophotometer.

[3] = for Total score: Table 11A, First Round, days 09-27; for 1st & 2nd Cycle Total Score / 2nd Cycle Total Score: Table 11C; for toxicity score (neurotoxicity): nude, mouse, in vivo
Method: The “toxicity score” (or “Total Score” in Tables 11A-C) is determined by adding the neurotoxicity ratings. The ratings used are: Normal (−, a toxicity score of 0); slightly unable to balance (+, a toxicity score of 1); hind-leg paralysis (++, a toxicity score of 2); and 4-leg paralysis and death (+++, none observed).

[4] = test system: CCRF-CEM human T-cell acute lymphoblastic leukemia cells; test: In vitro cytotoxicity against CCRF-CEM (XTT / CCK-8 tetrazolium assay, 72 hr); settings: Homo sapiens, CCRF-CEM, 72 h
Method: as §1, §2, §3, §4

[5] = Method: The experimental procedure for FIG. 14 was carried out similarly to that in FIG. 1. * means P<0.1 and ** means P<0.05. Body weight was calculated as described for FIGS. 1 and 4-7.
The experiments were performed as indicated for FIG. 14, with Compound (K) being administered orally. Compound K was administered on the days indicated by the arrows at the top of the graph, and paclitaxel was administered on the days indicated by the arrows on the bottom of the graph. Body weight was calculated as described for FIGS. 1, 4-7, 14 and 15. * means P<0.1 and ** means P<0.05.

[6] = test system: CCRF-CEM subline resistant to TAXOL; test: In vitro cytotoxicity against TAXOL-resistant CCRF-CEM subline; assay type: cell-based, human; settings: Table 3A-2
Method: as §2, §4

[7] = test system: leukemic CCRF CEM cells; test: Precursor incorporation into DNA, RNA and protein (Table 9); assay type: cell-based, human
Method: The radioactive tracer studies were carried out as described by Chou T C, et al. Cancer Res. 43: 3074-3079, 1983.

[8] = test system: human lymphoblastic leukemic T-cell growth; test: Cytotoxic activity relative to stability during storage at −20° C. in DMSO (Table 10); assay type: cell-based; settings: Homo sapiens, CCRF-CEM, 72 h, XTT, 72 hr
From the text: Without wishing to be bound by theory, the oxidized versions may be active metabolites. This theory provides an explanation of the delayed onset of therapeutic effects seen in the figures herein. The oxidized compounds may be active agents that are formed slowly upon metabolic oxidation. […] The active metabolites may explain the biphasic pharmacological properties of panaxytriol or Compound D that have been observed (FIGS. 9B, C, D; FIGS. 11D, E, F, and FIGS. 12D, E). […] Induction of the phase 2 enzymes may slow oxidation of the compounds (Ng et al., Tetrahedron Letters. 49: 7178-7179 (2008)).

[9] = test system: human mammary carcinoma MX-1 cells; test: In vitro drug combination (median-effect / combination index, DRI) against MX-1 cell growth (Tables 5, 5A); assay type: cell-based; settings: for IC50: MX-1, 72 hrs
Method: as §2
Efficacy of panaxytriol in combination with Fludelone (an illustrative tubulin-binding anticancer agent) was measured according to procedures described in more detail by Chou et al. (1984) Adv. Enz. Regul., 22:27-55, Chou et al. (1994) Nat'l Cancer Inst., 86:1517-1524, and Chou (2006) Pharmacological Reviews, […]:621-681. Software packages used for data analyses were CalcuSyn for Windows (Chou and Hayball., Multiple-drug dose effect analyzer and manual, Biosoft, Cambridge Place, Cambridge, U.K (1996)) and CompuSyn for Drug Combinations (Chou and Martin, Software for determination of synergism and antagonism and determination of IC50, ED50 and LD50, ComboSyn Inc., Paramus, N.J. (2005)). The entire contents of each of the above references are incorporated by reference in their entireties. […] DRI quantitates synergy as how many fold less of a dose is required to obtain a given level of effect for a combination of drugs versus the same effect for an individual component of the combination.

[10] = Table 5, fold dose reduction allowed in the Panaxytriol + Fludelone combination

SMILES: CC(C)=CCCC(C)(O)[C@H]1CC[C@]2(C)[C@@H]1[C@H](O)C[C@@H]1[C@@]3(C)CC[C@H](O)C(C)(C)[C@@H]3CC[C@]12C (stereo in doubt) [protopanaxadiol]
- significant cytotoxicity observed above [1]: above 5 μg/well

SMILES: CC(=O)O[C@H]1C(=O)[C@@]2(C)[C@H]([C@H](OC(=O)c3ccccc3)[C@]3(O)C[C@H](OC(=O)[C@H](O)[C@@H](NC(=O)c4ccccc4)c4ccccc4)C(C)=C1C3(C)C)[C@]1(OC(C)=O)CO[C@@H]1C[C@@H]2O [paclitaxel]
- IC50 ([2]; Table 3A-2, CCK-8, 72-hr exposure, read-out: CCRF-CEM/VBL (IC50 in μM)): 2.26 µM
- Fold of resistance (IC50 ratio CCRF-CEM/VBL vs CCRF-CEM) ([2]; Table 3A-2): 1741 fold
- Total score ([3]; per mouse): 8 (3×) and 2 (2×) and 0 and 5 and 3 and 10 and 7
- Total score ([3]; whole group of 10 mice): 53
- 1st & 2nd Cycle Total Score ([3]; per mouse, listed as Taxol): 33 (2×) and 4 (2×) and 15 and 35 and 18 and 34 and 27 and 31
- 2nd Cycle Total Score ([3]; per mouse, listed as Taxol): 25 (2×) and 2 (2×) and 15 (2×) and 30 and 24 and 20 and 23
- 1st & 2nd Cycle Total Score ([3]; whole group of 10 mice): 234
- 2nd Cycle Total Score ([3]; whole group of 10 mice): 181
- 1st Total score (group) ([3]; days 12-26, sum over 11 mice of the group, first round of paclitaxel): 13
- 1st Total score (per mouse) ([3]; days 12-26, sum per individual mouse, first round of paclitaxel): 3 and 2 (3×) and 4
- 2nd Total Score up to day 42 (group) ([3]; days 28-42, sum over 11 mice of the group, second round of paclitaxel): 79
- 2nd Total Score up to day 42 (per mouse) ([3]; days 28-42, sum per individual mouse, second round of paclitaxel): 8 and 6 (3×) and 9 (3×) and 7 and 5 and 4 and 10
- toxicity score (neurotoxicity) ([3]; 27 day): 2
- toxicity score (neurotoxicity) ([3]; 59 day): 6
- IC50 ([4]; read-out: CCRF-CEM (IC50 in μM), Table 3A-2, CCK-8, 72-hr exposure): 0.0013 µM
- complete remission (CR) ([5]; FIG. 14, paclitaxel 25 mg/kg iv Q2D×8, with or without Compound K 30 mg/kg iv Q4D×14): 10/10
- BW loss ([5]; mouse, in vivo): approximately 25%
- decrease in BW ([5]; mouse, in vivo): 13.2%
- IC50 ([6]; Homo sapiens, CCRF-CEM, CCK-8, 72-hr exposure, read-out: CCRF-CEM/TAXOL (IC50 in μM)): 1.12 µM
- Fold of resistance (IC50 ratio CCRF-CEM/TAXOL vs CCRF-CEM) [6]: 860 fold

SMILES: C=CC(=O)C#CC#CC[C@@H](O)[C@H](O)CCCCCCC [Compound (B)]
- [3H]-AdR → RNA (% Activation ↑ or Inhibition ↓) ([7]; 15 μM, 15 min, ↑ (activation)): 30.7 ↑ %
- [3H]-dThd → DNA (% Activation ↑ or Inhibition ↓) ([7]; 15 μM, 15 min, ↑ (activation)): 26.1 ↑ %
- [3H]-AdR → RNA (% Activation ↑ or Inhibition ↓) ([7]; 100 μM, 60 min, ↓ (inhibition)): 82.0 ↓ %
- [3H]-dThd → DNA (% Activation ↑ or Inhibition ↓) ([7]; 100 μM, 60 min, ↓ (inhibition)): 78.2 ↓ %
- inhibition at 15 µM ([7]; Homo sapiens, CCRF-CEM, 15 μM, 15 min, ↓ (inhibition), read-out: [3H] Leu → Protein (% Activation ↑ or Inhibition ↓)): 62.8%
- inhibition at 100 µM ([7]; Homo sapiens, CCRF-CEM, 100 μM, 60 min, ↓ (inhibition), read-out: [3H] Leu → Protein (% Activation ↑ or Inhibition ↓)): 78.2%
- IC50 ([2]; read-out: IC50 CCRF ± CEM/VBL): 6.29 ± 1.41 µM
- fold resistance in brackets (IC50 CCRF-CEM/VBL vs CCRF-CEM) ([2]; Table 3): 1.40 x
- IC50 ([4]; read-out: IC50 CCRF-CEM, Table 3, XTT, 72-hour): 4.49 ± 0.41 µM
- IC50 ([8]; read-out: IC50 in μM CCRF-CEM, Table 10, Aug. 22, 2003 (Stored), same solution kept at −20° C. in DMSO): 4.78 µM
- IC50 ([8]; read-out: IC50 in μM CCRF-CEM, Table 10, Jul. 25, 2003 (Fresh)): 0.72 ± 0.14 µM
- IC50 ([8]; read-out: IC50 in μM CCRF-CEM/VBL, Table 10, Aug. 22, 2003 (Stored), same solution kept at −20° C. in DMSO): 5.29 µM
- IC50 ([8]; read-out: IC50 in μM CCRF-CEM/VBL, Table 10, Jul. 25, 2003 (Fresh)): 0.95 µM

SMILES: C/C(=C\c1csc(C)n1)[C@@H]1C/C=C(/C(F)(F)F)C/C=C/[C@H](C)[C@H](O)[C@@H](C)C(=O)C(C)(C)[C@@H](O)CC(=O)O1 [Fludelone]
- IC50 ([9]; Table 5, Panaxytriol + Fludelone combination (1.199 + 0.0012), read-out: Dose-effect parameter Dm (IC50) of the component in the combination): 1.2 nM
- IC50 ([9]; Table 5, each drug alone, read-out: Dose-effect parameter Dm (IC50)): 2.7 nM
- Dose-Reduction Index (DRI) at IC50 [9, 10]: 2.27
- Dose-Reduction Index (DRI) at IC75 [9, 10]: 7.02
- Dose-Reduction Index (DRI) at IC90 [9, 10]: 21.69
- Dose-Reduction Index (DRI) at IC95 [9, 10]: 46.73
- dose-reduction index (DRI) ([9]; panaxytriol + Fludelone combination, MX-1 cells): 2.27-46.73
